Assay results taken from patent US8748417B2, “Amino-pyrrolidine-azetidine diamides as monoacylglycerol lipase inhibitors” (Janssen Pharmaceutica, NV, priority 2010, dated 2014).
Changes are numbered by the printed parent chain. pIC50: −log10 of the molar value.

Target: T1, purified mutant MGL (mut-MGLL 11-313 L179S L186S) (Homo sapiens, UniProt Q99685, L169S/L176S)
T1 construct: purified mutant MGL (mut-MGLL 11-313 L179S L186S)
T1 sequence (Q99685 1-303 L169S/L176S): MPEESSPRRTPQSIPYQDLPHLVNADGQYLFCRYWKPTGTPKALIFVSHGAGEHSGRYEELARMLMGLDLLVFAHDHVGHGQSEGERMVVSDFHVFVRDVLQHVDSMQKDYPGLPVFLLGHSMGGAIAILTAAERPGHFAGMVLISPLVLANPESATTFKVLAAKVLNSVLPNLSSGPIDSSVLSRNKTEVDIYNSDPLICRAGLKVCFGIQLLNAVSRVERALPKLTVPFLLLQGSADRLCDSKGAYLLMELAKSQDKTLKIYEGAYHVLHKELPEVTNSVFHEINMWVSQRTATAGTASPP
Assay: MGL enzyme activity assay (4MU-B cleavage), mutant MGL
Format: biochemical
Settings: mutant MGL 5 nM, 4MU-B 10 μM, 37° C.; read-out: MGL mutant inh IC50
Experimental: All rate-based assays were performed in black 384-well polypropylene PCR microplates (Abgene) in a total volume of 30 μL. Substrate 4-methylumbelliferyl butyrate (4MU-B; Sigma) and either purified mutant MGL (mut-MGLL 11-313 L179S L186S) or purified wild type MGL (wt-MGLL 6H-11-313) were diluted separately into 20 mM PIPES buffer (pH=7.0), containing 150 mM NaCl and 0.001% Tween 20. Compounds of Formula (I) were pre-dispensed (50 nL) into the assay plate using a Cartesian Hummingbird prior to adding 4MU-B (25 μL of 1.2× solution to a final concentration of 10 μM) followed by enzyme (5 μL of a 6× solution to a final concentration of 5 nM) to initiate the reaction. Final compound concentrations ranged from 17 to 0.0003 μM. The fluorescence change due to 4MU-B cleavage was monitored with excitation and emission wavelengths of 335 and 440 nm, respectively, and a bandwidth of 10 nm (Safire^2, Tecan) at 37° C. for 5 min.
The IC50 values for the following compounds were determined using Microsoft Office Excel from a fit of the equation to the concentration-response plot of the fractional activity as a function of inhibitor concentration.

Compound	pIC50
O=C(c1ccccc1)N1CC[C@H](NC2CN(C(=O)c3cc4cc(C(F)(F)F)ccc4s3)C2)C1 [Cpd 19, (3S)-1-(Phenylcarbonyl)-N-(1-{[5-(trifluoromethyl)-1-benzothiophen-2-yl]carbonyl}azetidin-3-yl)pyrrolidin-3-amine]	6.44
O=C(c1ccc(Cc2ccccc2)cc1)N1CC(N[C@@H]2CCN(C(=O)c3nccs3)C2)C1 [Cpd 6, (3R)-N-{1-[(4-Benzylphenyl)carbonyl]azetidin-3-yl}-1-(1,3-thiazol-2-ylcarbonyl)pyrrolidin-3-amine]	6.31
COC1CN(C(=O)c2ccccc2)CC1NC1CN(C(=O)c2ccc(-c3cccc(C(F)(F)F)c3)cc2)C1 (stereo not drawn) [Cpd 71, trans--4-Methoxy-1-(phenylcarbonyl)-N-(1-{[3′-(trifluoromethyl)biphenyl-4-yl]carbonyl}azetidin-3-yl)pyrrolidin-3-amine]	5.25
O=C(c1nccs1)N1CC[C@H](NC2CN(C(=O)N3CCc4cc(Br)ccc4C3)C2)C1 [Cpd 10, (S)-(3-((1-(6-Bromo-1,2,3,4-tetrahydroisoquinoline-2-carbonyl)azetidin-3-yl)amino)pyrrolidin-1-yl)(thiazol-2-yl)methanone]	5.54
O=C(c1ccc(Cc2ccccc2)cc1)N1CC(N[C@@H]2CCN(C(=O)c3ccccc3)C2)C1 [Cpd 7, (3R)-N-{1-[(4-Benzylphenyl)carbonyl]azetidin-3-yl}-1-(phenylcarbonyl)pyrrolidin-3-amine]	5.69
O=C(c1ccc(-c2ccccc2)cc1)N1CC(N[C@@H]2CN(C(=O)c3ccccc3)C[C@H]2O)C1 (relative stereo) [Cpd 78, trans-4-{[1-(Biphenyl-4-ylcarbonyl)azetidin-3-yl]amino}-1-(phenylcarbonyl)pyrrolidin-3-ol]	4.87
O=C(c1ccc(-c2ccccc2)cc1)N1CC(N[C@@H]2CN(C(=O)c3ccccc3)CC2F)C1 (stereo partly drawn) [Cpd 60, (3R)-N-[1-(Biphenyl-4-ylcarbonyl)azetidin-3-yl]-4-fluoro-1-(phenylcarbonyl)pyrrolidin-3-amine]	< 4.78
O=C(c1nccs1)N1CC[C@H](NC2CN(C(=O)N3CCc4cc(-c5ccccc5)ccc4C3)C2)C1 [Cpd 11, (S)-(3-((1-(6-Phenyl-1,2,3,4-tetrahydroisoquinoline-2-carbonyl)azetidin-3-yl)amino)pyrrolidin-1-yl)(thiazol-2-yl)methanone]	6.46
O=C(c1ccc(-c2ccccc2)cc1)N1CC(N[C@H]2CCN(C(=O)c3ccc(F)cc3)C2)C1 [Cpd 45, (3S)-N-[1-(Biphenyl-4-ylcarbonyl)azetidin-3-yl]-1-[(4-fluorophenyl)carbonyl]pyrrolidin-3-amine]	5.79
O=C(c1nccs1)N1CC[C@H](NC2CN(C(=O)N3Cc4ccc(-c5ccccc5)cc4C3)C2)C1 [Cpd 13, (3S)-N-{1-[(5-Phenyl-1,3-dihydro-2H-isoindol-2-yl)carbonyl]azetidin-3-yl}-1-(1,3-thiazol-2-ylcarbonyl)pyrrolidin-3-amine]	6.14
O=C(c1ccc(-c2ccccc2)cc1)N1CC(N[C@H]2CCN(C(=O)c3cc4ccccc4o3)C2)C1 [Cpd 47, (3S)-1-(1-Benzofuran-2-ylcarbonyl)-N-[1-(biphenyl-4-ylcarbonyl)azetidin-3-yl]pyrrolidin-3-amine]	4.96
O=C(c1ccc(-c2ccccc2)cc1)N1CC(N[C@H]2CCN(C(=O)c3cc4ccccc4s3)C2)C1 [Cpd 48, (3S)-1-(1-Benzothiophen-2-ylcarbonyl)-N-[1-(biphenyl-4-ylcarbonyl)azetidin-3-yl]pyrrolidin-3-amine]	5.05
O=C(c1ccc(-c2cccc(C(F)(F)F)c2)cc1)N1CC(N[C@@H]2CN(C(=O)c3ccccc3)C[C@H]2O)C1 (relative stereo) [Cpd 72, trans-1-(Phenylcarbonyl)-4-[(1-{[3′-(trifluoromethyl)biphenyl-4-yl]carbonyl}azetidin-3-yl)amino]pyrrolidin-3-ol]	6.12
O=C(c1nccs1)N1CC[C@H](NC2CN(C(=O)N3Cc4ccc(Br)cc4C3)C2)C1 [Cpd 12, (3S)-N-{1-[(5-Bromo-1,3-dihydro-2H-isoindol-2-yl)carbonyl]azetidin-3-yl}-1-(1,3-thiazol-2-ylcarbonyl)pyrrolidin-3-amine]	5.21

Other lines, results leading:

pIC50	Compound
6.90	O=C(c1ccc2c(-c3ccc(OC(F)(F)F)cc3)cccc2c1)N1CC(N[C@H]2CCN(C(=O)c3ccccc3)C2)C1 [Cpd 26, (3S)-1-(Phenylcarbonyl)-N-[1-({5-[4-(trifluoromethoxy)phenyl]naphthalen-2-yl}carbonyl)azetidin-3-yl]pyrrolidin-3-amine]
6.94	O=C(c1ccc(-c2ccccc2)cc1)N1CC(N[C@H]2CCN(C(=O)c3nccs3)C2)C1 [Cpd 1, (3S)-N-[1-(Biphenyl-4-ylcarbonyl)azetidin-3-yl]-1-(1,3-thiazol-2-ylcarbonyl)pyrrolidin-3-amine]
6.57	O=C(c1ccccc1)N1CC[C@H](NC2CN(C(=O)c3cc4ccc(-c5ccc(C(F)(F)F)cc5)cc4s3)C2)C1 [Cpd 43, (3S)-1-(Phenylcarbonyl)-N-[1-({6-[4-(trifluoromethyl)phenyl]-1-benzothiophen-2-yl}carbonyl)azetidin-3-yl]pyrrolidin-3-amine]
6.72	O=C(c1ccc(-c2ccc(OC(F)(F)F)cc2)cc1)N1CC(N[C@H]2CCN(C(=O)c3ccccc3)C2)C1 [Cpd 36, (3S)-1-(Phenylcarbonyl)-N-(1-{[4′-(trifluoromethoxy)biphenyl-4-yl]carbonyl}azetidin-3-yl)pyrrolidin-3-amine]
6.47	O=C(c1ccc(-c2ccccc2)cc1)N1CC(N[C@H]2CCN(C(=O)c3cccc(F)c3)C2)C1 [Cpd 46, (3S)-N-[1-(Biphenyl-4-ylcarbonyl)azetidin-3-yl]-1-[(3-fluorophenyl)carbonyl]pyrrolidin-3-amine]
6.80	O=C(c1ccc(-c2ccc(C(F)(F)F)cc2)cc1)N1CC(N[C@H]2CCN(C(=O)c3ccccc3)C2)C1 [Cpd 35, (3S)-1-(Phenylcarbonyl)-N-(1-{[4′-(trifluoromethyl)biphenyl-4-yl]carbonyl}azetidin-3-yl)pyrrolidin-3-amine]
6.91	O=C(c1ccc(-c2ccccc2)cc1)N1CC(N[C@H]2CCN(C(=O)c3ccccc3)C2)C1 [Cpd 2, (3S)-N-[1-(Biphenyl-4-ylcarbonyl)azetidin-3-yl]-1-(phenylcarbonyl)pyrrolidin-3-amine]
6.99	O=C(c1ccccc1)N1CC[C@H](NC2CN(C(=O)c3sc4ccccc4c3-c3ccccc3)C2)C1 [Cpd 65, (3S)-N-{1-[(3-Phenyl-1-benzothiophen-2-yl)carbonyl]azetidin-3-yl}-1-(phenylcarbonyl)pyrrolidin-3-amine]
6.70	O=C(c1ccccc1)N1CCC(NC2CN(C(=O)c3ccc(C(F)c4ccc(C(F)(F)F)cc4)cc3)C2)C1 (centres unmarked) [Cpd 69, N-{1-[(4-{Fluoro[4-(trifluoromethyl)phenyl]methyl}phenyl)carbonyl]azetidin-3-yl}-1-(phenylcarbonyl)pyrrolidin-3-amine]
6.52	O=C(c1ccccc1)N1CC[C@H](NC2CN(C(=O)c3cc4ccc(Br)cc4s3)C2)C1 [Cpd 38, (3S)-N-{1-[(6-Bromo-1-benzothiophen-2-yl)carbonyl]azetidin-3-yl}-1-(phenylcarbonyl)pyrrolidin-3-amine]

Target: T2, purified wild type MGL (wt-MGLL 6H-11-313) (Homo sapiens, UniProt Q99685)
T2 construct: purified wild type MGL (wt-MGLL 6H-11-313)
T2 sequence (Q99685 1-303): T1 sequence (Q99685 1-303 L169S/L176S) with S169L, S176L
Assay: MGL enzyme activity assay (4MU-B cleavage), wild type MGL
Format: biochemical
Settings: wild type MGL 5 nM, 4MU-B 10 μM, 37° C.; read-out: MGL wild type inh IC50
Summary of the method: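 Enzyme in 20 mM PIPES pH 7.0, 150 mM NaCl, 0.001% Tween 20 with 4MU-B at 10 μM final and MGL at 5 nM final; compounds 17 to 0.0003 μM final, enzyme added last. Fluorescence (ex 335/em 440 nm) followed at 37° C for 5 min; IC50 from fit of fractional activity versus inhibitor concentration.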

pIC50	Compound
> 8.30	O=C(c1ccc(-c2cccc(C(F)(F)F)c2)cc1)N1CC(N[C@H]2CCN(C(=O)c3nccs3)C2)C1 [Cpd 113, (3S)-1-(1,3-Thiazol-2-ylcarbonyl)-N-(1-{[3′-(trifluoromethyl)biphenyl-4-yl]carbonyl}azetidin-3-yl)pyrrolidin-3-amine]

Tested on: MGL (rat brain homogenate)
Assay: 2-AG accumulation assay in rat brain homogenate
Format: biochemical
Settings: compound 1 μM, percent of vehicle 2-AG accumulation
Summary of the method: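 Rat brain homogenate was incubated with compound for 15 min at 37° C., after which CaCl2 was added to a final concentration of 10 mM and incubation continued for 15 min at 37° C. in 5 mL total. Reactions were stopped with 6 mL of 2:1 chloroform/methanol, and 2-AG accumulated in the organic phase was quantified by HPLC/MS.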

Compound	Rat Brain 2AG % VehCntrl (%) @1 μM [%]
O=C(c1ccc(-c2cccc(C(F)(F)F)c2)cc1)N1CC(N[C@H]2CCN(C(=O)c3nccs3)C2)C1 [Cpd 113, (3S)-1-(1,3-Thiazol-2-ylcarbonyl)-N-(1-{[3′-(trifluoromethyl)biphenyl-4-yl]carbonyl}azetidin-3-yl)pyrrolidin-3-amine]	832
